Test results from ChEMBL document CHEMBL1629662, “Antimicrobial activity of prulifloxacin tested against a worldwide collection of gastroenteritis-producing pathogens, including those causing traveler's diarrhea” (2009).

Tests used:
Vibrio parahaemolyticus [1] = test: Antibacterial activity against Vibrio parahaemolyticus by broth microdilution method; assay type: functional
Aeromonas caviae [2] = test: Antibacterial activity against Aeromonas caviae by broth microdilution method; assay type: functional
Shigella dysenteriae = test: Antibacterial activity against Shigella dysenteriae by broth microdilution method; assay type: functional
Vibrio sp. [3] = test: Antibacterial activity against Vibrio sp. by broth microdilution method; assay type: functional
Salmonella typhimurium [4] = test: Antibacterial activity against Salmonella enterica serovar Typhimurium by broth microdilution method; assay type: functional, Salmonella enterica subsp. enterica serovar Typhimurium
Plesiomonas shigelloides [5] = test: Antibacterial activity against Plesiomonas shigelloides assessed as percent resistant isolates by broth microdilution method; assay type: functional
Salmonella enteritidis [6] = test: Antibacterial activity against Salmonella enterica serovar Enteritidis assessed as percent susceptible isolates by broth microdilution method; assay type: functional, Salmonella enterica subsp. enterica serovar Enteritidis; conditions: pooled result: one value given for 5 cell lines, strains, targets or settings
Shigella sonnei [7] = test: Antibacterial activity against Shigella sonnei by broth microdilution method; assay type: functional
Vibrio cholerae [8] = test: Antibacterial activity against Vibrio cholerae assessed as percent resistant isolates by broth microdilution method; assay type: functional
Aeromonas veronii [9] = test: Antibacterial activity against Aeromonas veronii assessed as percent resistant isolates by broth microdilution method; assay type: functional
Yersinia enterocolitica [10] = test: Antibacterial activity against Yersinia enterocolitica assessed as percent resistant isolates by broth microdilution method; assay type: functional
Campylobacter jejuni [11] = test: Antibacterial activity against Campylobacter jejuni assessed as percent resistant isolates by broth microdilution method; assay type: functional; conditions: pooled result: one value given for 2 cell lines, strains, targets or settings
Escherichia coli [12] = test: Antibacterial activity against Escherichia coli assessed as percent susceptible isolates by broth microdilution method; assay type: functional
Yersinia enterocolitica [13] = test: Antibacterial activity against Yersinia enterocolitica by broth microdilution method; assay type: functional
Vibrio alginolyticus [14] = test: Antibacterial activity against Vibrio alginolyticus assessed as percent resistant isolates by broth microdilution method; assay type: functional
Yersinia enterocolitica [15] = test: Antibacterial activity against Yersinia enterocolitica assessed as percent susceptible isolates by broth microdilution method; assay type: functional
Shigella boydii [16] = test: Antibacterial activity against Shigella boydii assessed as percent susceptible isolates by broth microdilution method; assay type: functional; conditions: pooled result: one value given for 3 cell lines, strains, targets or settings
Campylobacter coli = test: Antibacterial activity against Campylobacter coli by broth microdilution method; assay type: functional
Escherichia coli [17] = test: Antibacterial activity against Escherichia coli assessed as percent resistant isolates by broth microdilution method; assay type: functional
Vibrio fluvialis [18] = test: Antibacterial activity against Vibrio fluvialis assessed as percent resistant isolates by broth microdilution method; assay type: functional
Vibrio parahaemolyticus [19] = test: Antibacterial activity against Vibrio parahaemolyticus assessed as percent susceptible isolates by broth microdilution method; assay type: functional
Vibrio vulnificus [20] = test: Antibacterial activity against Vibrio vulnificus assessed as percent susceptible isolates by broth microdilution method; assay type: functional
Salmonella enteritidis [21] = test: Antibacterial activity against Salmonella enterica serovar Enteritidis by broth microdilution method; assay type: functional, Salmonella enterica subsp. enterica serovar Enteritidis
Aeromonas hydrophila [22] = test: Antibacterial activity against Aeromonas hydrophila assessed as percent resistant isolates by broth microdilution method; assay type: functional
Vibrio sp. [23] = test: Antibacterial activity against Vibrio sp. assessed as percent susceptible isolates by broth microdilution method; assay type: functional
Aeromonas hydrophila [24] = test: Antibacterial activity against Aeromonas hydrophila by broth microdilution method; assay type: functional
Campylobacter jejuni [25] = test: Antibacterial activity against Campylobacter jejuni assessed as percent susceptible isolates by broth microdilution method; assay type: functional; conditions: pooled result: one value given for 2 cell lines, strains, targets or settings
Campylobacter jejuni [26] = test: Antibacterial activity against Campylobacter jejuni by broth microdilution method; assay type: functional
Escherichia coli [27] = test: Antibacterial activity against Escherichia coli by broth microdilution method; assay type: functional
Aeromonas sobria [28] = test: Antibacterial activity against Aeromonas sobria assessed as percent susceptible isolates by broth microdilution method; assay type: functional
Vibrio alginolyticus [29] = test: Antibacterial activity against Vibrio alginolyticus by broth microdilution method; assay type: functional
Vibrio cholerae [30] = test: Antibacterial activity against Vibrio cholerae by broth microdilution method; assay type: functional
Vibrio cholerae [31] = test: Antibacterial activity against Vibrio cholerae assessed as percent susceptible isolates by broth microdilution method; assay type: functional
Aeromonas sobria [32] = test: Antibacterial activity against Aeromonas sobria assessed as percent resistant isolates by broth microdilution method; assay type: functional
Shigella flexneri = test: Antibacterial activity against Shigella flexneri by broth microdilution method; assay type: functional
Aeromonas hydrophila [33] = test: Antibacterial activity against Aeromonas hydrophila assessed as percent susceptible isolates by broth microdilution method; assay type: functional
Aeromonas caviae [34] = test: Antibacterial activity against Aeromonas caviae assessed as percent susceptible isolates by broth microdilution method; assay type: functional
Vibrio sp. [35] = test: Antibacterial activity against Vibrio sp. assessed as percent resistant isolates by broth microdilution method; assay type: functional
[36] = tested on: Yersinia pseudotuberculosis; test: Antibacterial activity against Yersinia pseudotuberculosis by broth microdilution method; assay type: functional
Shigella sonnei [37] = test: Antibacterial activity against Shigella sonnei assessed as percent resistant isolates by broth microdilution method; assay type: functional; conditions: pooled result: one value given for 4 cell lines, strains, targets or settings
Aeromonas veronii [38] = test: Antibacterial activity against Aeromonas veronii by broth microdilution method; assay type: functional
Aeromonas sobria [39] = test: Antibacterial activity against Aeromonas sobria by broth microdilution method; assay type: functional
Shigella boydii [40] = test: Antibacterial activity against Shigella boydii by broth microdilution method; assay type: functional
Vibrio fluvialis [41] = test: Antibacterial activity against Vibrio fluvialis by broth microdilution method; assay type: functional
Plesiomonas shigelloides [42] = test: Antibacterial activity against Plesiomonas shigelloides assessed as percent susceptible isolates by broth microdilution method; assay type: functional
Vibrio parahaemolyticus [43] = test: Antibacterial activity against Vibrio parahaemolyticus assessed as percent resistant isolates by broth microdilution method; assay type: functional
Aeromonas veronii [44] = test: Antibacterial activity against Aeromonas veronii assessed as percent susceptible isolates by broth microdilution method; assay type: functional
Vibrio vulnificus [45] = test: Antibacterial activity against Vibrio vulnificus by broth microdilution method; assay type: functional
Aeromonas caviae [46] = test: Antibacterial activity against Aeromonas caviae assessed as percent resistant isolates by broth microdilution method; assay type: functional
Vibrio fluvialis [47] = test: Antibacterial activity against Vibrio fluvialis assessed as percent susceptible isolates by broth microdilution method; assay type: functional
Plesiomonas shigelloides [48] = test: Antibacterial activity against Plesiomonas shigelloides by broth microdilution method; assay type: functional
Vibrio vulnificus [49] = test: Antibacterial activity against Vibrio vulnificus assessed as percent resistant isolates by broth microdilution method; assay type: functional
Vibrio alginolyticus [50] = test: Antibacterial activity against Vibrio alginolyticus assessed as percent susceptible isolates by broth microdilution method; assay type: functional
Salmonella typhimurium [51] = test: Antibacterial activity against Salmonella enterica serovar Typhimurium assessed as percent resistant isolates by broth microdilution method; assay type: functional, Salmonella enterica subsp. enterica serovar Typhimurium; conditions: pooled result: one value given for 8 cell lines, strains, targets or settings

C[C@H]1c2cccc(O)c2C(=O)C2=C(O)[C@]3(O)C(=O)C(C(N)=O)=C(O)[C@@H](N(C)C)[C@@H]3[C@@H](O)[C@@H]21.O [DOXYCYCLINE]
13.9%: Activity (Salmonella typhimurium [51])
59.6%: Activity (Campylobacter jejuni [25])
4.3%: Activity (Yersinia enterocolitica [10])
95.7%: Activity (Yersinia enterocolitica [15])
34.7%: Activity (Shigella boydii [16])
76%: Activity (Escherichia coli [12])
32 µg/mL: MIC90 (Shigella dysenteriae) | MIC90 (Salmonella typhimurium [4]) | MIC90 (Shigella sonnei [7]) | MIC90 (Salmonella enteritidis [21]) | MIC90 (Shigella flexneri) | MIC90 (Shigella boydii [40])
2 µg/mL: MIC50 (Salmonella typhimurium [4]) | MIC90 (Yersinia enterocolitica [13]) | MIC50 (Salmonella enteritidis [21]) | MIC50 (Escherichia coli [27]) | MIC90 [36]
16 µg/mL: MIC50 (Shigella dysenteriae) | MIC50 (Shigella sonnei [7]) | MIC90 (Campylobacter coli) | MIC90 (Campylobacter jejuni [26]) | MIC90 (Escherichia coli [27]) | MIC50 (Shigella flexneri) | MIC50 (Shigella boydii [40])
1 µg/mL: MIC90 (Aeromonas caviae [2]) | MIC50 (Yersinia enterocolitica [13]) | MIC90 (Aeromonas hydrophila [24]) | MIC50 [36] | MIC90 (Aeromonas veronii [38]) | MIC90 (Aeromonas sobria [39])
100%: Activity (Vibrio parahaemolyticus [19]) | Activity (Vibrio vulnificus [20]) | Activity (Vibrio sp. [23]) | Activity (Aeromonas sobria [28]) | Activity (Vibrio cholerae [31]) | Activity (Aeromonas hydrophila [33]) | Activity (Aeromonas caviae [34]) | Activity (Plesiomonas shigelloides [42]) | Activity (Aeromonas veronii [44]) | Activity (Vibrio fluvialis [47]) | Activity (Vibrio alginolyticus [50])
0%: Activity (Plesiomonas shigelloides [5]) | Activity (Vibrio cholerae [8]) | Activity (Aeromonas veronii [9]) | Activity (Vibrio alginolyticus [14]) | Activity (Vibrio fluvialis [18]) | Activity (Aeromonas hydrophila [22]) | Activity (Aeromonas sobria [32]) | Activity (Vibrio sp. [35]) | Activity (Vibrio parahaemolyticus [43]) | Activity (Aeromonas caviae [46]) | Activity (Vibrio vulnificus [49])
52.5%: Activity (Shigella sonnei [37])
82.2%: Activity (Salmonella enteritidis [6])
≤ 0.12 µg/mL: MIC (Vibrio parahaemolyticus [1]) | MIC50 (Vibrio parahaemolyticus [1]) | MIC90 (Vibrio parahaemolyticus [1]) | MIC (Vibrio sp. [3]) | MIC50 (Vibrio sp. [3]) | MIC90 (Vibrio sp. [3]) | MIC (Campylobacter coli) | MIC50 (Campylobacter coli) | MIC (Campylobacter jejuni [26]) | MIC50 (Campylobacter jejuni [26]) | MIC (Vibrio alginolyticus [29]) | MIC50 (Vibrio alginolyticus [29]) | MIC90 (Vibrio alginolyticus [29]) | MIC (Vibrio cholerae [30]) | MIC50 (Vibrio cholerae [30]) | MIC90 (Vibrio cholerae [30]) | MIC (Vibrio fluvialis [41]) | MIC50 (Vibrio fluvialis [41]) | MIC90 (Vibrio fluvialis [41]) | MIC (Vibrio vulnificus [45]) | MIC50 (Vibrio vulnificus [45]) | MIC90 (Vibrio vulnificus [45]) | MIC (Plesiomonas shigelloides [48]) | MIC50 (Plesiomonas shigelloides [48])
33.9%: Activity (Campylobacter jejuni [11])
16%: Activity (Escherichia coli [17])
0.5 µg/mL: MIC50 (Aeromonas caviae [2]) | MIC50 (Aeromonas hydrophila [24]) | MIC50 (Aeromonas veronii [38]) | MIC50 (Aeromonas sobria [39])
